The source of these data is ChEMBL document CHEMBL1150883, “Antitumor-promoting naphthoquinones from Catalpa ovata” (J Nat Prod, 1998).

The first series relates to Raji. Briefly: Inhibition of 12-O-tetradecanoylphorbol-13-acetate induced EBV-early antigen activation in human Raji cells at 10 molar ratio per 32 pmol/ml TPA by immunofluorescence technique relative to control. Conditions: human gammaherpesvirus 4. The series is classed as cell-based. More on the design: Activity: scale not given: the % may be the effect or the level left.
With `COc1cccc2c1C(=O)C1=C(CCC(C)(C)O1)C2=O`, the EBV-EA activation remaining (% of TPA control) stood at 100%.
In the case of `COc1cccc2c1C(=O)C1=C(C(=O)CC(C)(C)O1)C2=O`, the EBV-EA activation remaining (% of TPA control) came out at 100%.
With `C=C(C)[C@H]1CC2=C(O1)C(=O)c1c(OC)cccc1C2=O`, the Activity was 100%.
Take `C=C(C)[C@@H]1OC2=C(C(=O)c3ccccc3C2=O)[C@@H]1O`: the EBV-EA activation remaining (% of TPA control) came out at 88.5%.
Consider `CC1(C)CC=C(C2OC(=O)c3ccccc32)C(=O)O1` (stereo not drawn) [CATALPALACTONE], for which the EBV-EA activation remaining (% of TPA control) worked out at 89.5%.
Regarding `CC1(C)C[C@H](O)C2=C(O1)C(=O)c1ccccc1C2=O`, the EBV-EA activation remaining (% of TPA control) turned out to be 86.7%.
On to `CC1=C(/C=C/C(C)=C/C=C/C(C)=C/C=C/C=C(C)/C=C/C=C(C)/C=C/C2=C(C)CCCC2(C)C)C(C)(C)CCC1` [BETA CAROTENE], for which the EBV-EA activation remaining (% of TPA control) was determined as 100%.
As for `CC1(C)C[C@H](O)C2=C(O1)C(=O)c1c(O)cccc1C2=O`, the EBV-EA activation remaining (% of TPA control) was determined as 100%.
Same read-out and setting: as for `CC1(C)C[C@H](O)[C@H]2C(=O)c3ccccc3[C@@H](O)[C@@H]2O1`, the figure is 93.8%.

System in a further series: not listed separately
Briefly: Cytotoxicity against human Raji cells assessed as cell viability at 1000 molar ratio after 48 hrs. Conditions: read-out: Activity. The series is classed as cell-based.
In the case of `COc1cccc2c1C(=O)C1=C(CCC(C)(C)O1)C2=O`, the viability at 48 h, 1000 molar ratio worked out at 70%.
On to `COc1cccc2c1C(=O)C1=C(C(=O)CC(C)(C)O1)C2=O`, for which the viability at 48 h, 1000 molar ratio turned out to be 70%.
Turning to `C=C(C)[C@H]1CC2=C(O1)C(=O)c1c(OC)cccc1C2=O`, the viability at 48 h, 1000 molar ratio is 60%.
On to `C=C(C)[C@@H]1OC2=C(C(=O)c3ccccc3C2=O)[C@@H]1O`, for which the viability at 48 h, 1000 molar ratio came to 30%.
On the same count and under the same terms, as for `CC1(C)CC=C(C2OC(=O)c3ccccc32)C(=O)O1` (stereo not drawn) [CATALPALACTONE], the figure is 70%.
As for `CC1(C)C[C@H](O)C2=C(O1)C(=O)c1ccccc1C2=O`, the viability at 48 h, 1000 molar ratio is 60%.
On to `CC1=C(/C=C/C(C)=C/C=C/C(C)=C/C=C/C=C(C)/C=C/C=C(C)/C=C/C2=C(C)CCCC2(C)C)C(C)(C)CCC1` [BETA CAROTENE], for which the viability at 48 h, 1000 molar ratio came to 70%.
For the molecule `CC1(C)C[C@H](O)C2=C(O1)C(=O)c1c(O)cccc1C2=O`, the viability at 48 h, 1000 molar ratio was 60%.
On to `CC1(C)C[C@H](O)[C@H]2C(=O)c3ccccc3[C@@H](O)[C@@H]2O1`, for which the viability at 48 h, 1000 molar ratio was 70%.

System in another series: not listed separately
Briefly: Cytotoxicity against human Raji cells assessed as cell viability at 500 molar ratio after 48 hrs. It is filed as cell-based. Conditions: read-out: Activity.
`C=C(C)[C@@H]1OC2=C(C(=O)c3ccccc3C2=O)[C@@H]1O`: the viability at 48 h, 500 molar ratio amounted to 60%.

The test system of another series is Raji. Kind of series: Inhibition of 12-O-tetradecanoylphorbol-13-acetate induced EBV-early antigen activation in human Raji cells at 1000 molar ratio per 32 pmol/ml TPA by immunofluorescence technique relative to control. It is filed as cell-based. More on the design: scale not given: the % may be the effect or the level left. Conditions: human gammaherpesvirus 4.
On to `COc1cccc2c1C(=O)C1=C(CCC(C)(C)O1)C2=O`, for which the Activity turned out to be 83.8%.
With `COc1cccc2c1C(=O)C1=C(C(=O)CC(C)(C)O1)C2=O`, the Activity turned out to be 32.7%.
`C=C(C)[C@H]1CC2=C(O1)C(=O)c1c(OC)cccc1C2=O`: the Activity was 0%.
Turning to `C=C(C)[C@@H]1OC2=C(C(=O)c3ccccc3C2=O)[C@@H]1O`, the Activity was determined as 0%.
Consider `CC1(C)CC=C(C2OC(=O)c3ccccc32)C(=O)O1` (stereo not drawn) [CATALPALACTONE], for which the Activity stood at 0%.
On to `CC1(C)C[C@H](O)C2=C(O1)C(=O)c1ccccc1C2=O`, for which the Activity amounted to 11.2%.
For the molecule `CC1=C(/C=C/C(C)=C/C=C/C(C)=C/C=C/C=C(C)/C=C/C=C(C)/C=C/C2=C(C)CCCC2(C)C)C(C)(C)CCC1` [BETA CAROTENE], the Activity was 8.6%.
Regarding `CC1(C)C[C@H](O)C2=C(O1)C(=O)c1c(O)cccc1C2=O`, the Activity came out at 36.1%.
Consider `CC1(C)C[C@H](O)[C@H]2C(=O)c3ccccc3[C@@H](O)[C@@H]2O1`, for which the Activity is 0%.
